From PubChem BioAssay AID1919005 (Molecular Pharmacology Branch, DTP, NCI, 2023) come the findings set out here.

Each structure is given as a SMILES string. Where “and” joins values, the source holds several entries; their conditions need not be identical. Equal values may be shown once.

The experiment relates to 855422-203-R-J1-PDC complex spheroid growth. As to the kind of experiment: Anticancer human tumor 855422-203-R-J1-PDC patient-derived bladder carcinoma cell line growth inhibition [AhR]. The note with it: for viability, T/C: stronger effect = lower value. In a few lines:
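Agents were dosed in half-log steps down from roughly clinical Cmax, or from 10 microM where Cmax was unknown, alone and with AhR antagonists. Read-out: percent test/control growth of tumor spheroids containing HUVEC and MSC stromal cells.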

Where [1] appears, read: curve of first compound, second compound 0.1 µM.
The mark [2] stands for this setting: curve of first compound, second compound 0.316 µM.
The mark [3] stands for this setting: curve of first compound, second compound 1 µM.
Setting [4] is: curve of first compound, second compound 3.16 µM.
Where [5] appears, read: curve of first compound, second compound 10 µM.
Where [6] appears, read: second compound 0.1 µM, first compound 0.0316 µM.
[7] abbreviates: second compound 0.1 µM, first compound 0.1 µM.
[8] abbreviates: second compound 0.1 µM, first compound 0.316 µM.
Setting [9] is: second compound 0.1 µM, first compound 1 µM.
[10] abbreviates: second compound 0.1 µM, first compound 3.16 µM.
Where [11] appears, read: second compound 0.1 µM, first compound 10 µM.
Where [12] appears, read: second compound 0.316 µM, first compound 0.0316 µM.
Setting [13] is: second compound 0.316 µM, first compound 0.1 µM.
The mark [14] stands for this setting: second compound 0.316 µM, first compound 0.316 µM.
The mark [15] stands for this setting: second compound 0.316 µM, first compound 1 µM.
Setting [16] is: second compound 0.316 µM, first compound 3.16 µM.
[17] abbreviates: second compound 0.316 µM, first compound 10 µM.
[18] abbreviates: second compound 1 µM, first compound 0.0316 µM.
Where [19] appears, read: second compound 1 µM, first compound 0.1 µM.
The mark [20] stands for this setting: second compound 1 µM, first compound 0.316 µM.
Setting [21] is: second compound 1 µM, first compound 1 µM.
Where [22] appears, read: second compound 1 µM, first compound 3.16 µM.
The mark [23] stands for this setting: second compound 1 µM, first compound 10 µM.
Where [24] appears, read: second compound 3.16 µM, first compound 0.0316 µM.
Where [25] appears, read: second compound 3.16 µM, first compound 0.1 µM.
Setting [26] is: second compound 3.16 µM, first compound 0.316 µM.
The mark [27] stands for this setting: second compound 3.16 µM, first compound 1 µM.
Where [28] appears, read: second compound 3.16 µM, first compound 3.16 µM.
Setting [29] is: second compound 3.16 µM, first compound 10 µM.
Where [30] appears, read: second compound 10 µM, first compound 0.0316 µM.
Where [31] appears, read: second compound 10 µM, first compound 0.1 µM.
[32] abbreviates: second compound 10 µM, first compound 0.316 µM.
The mark [33] stands for this setting: second compound 10 µM, first compound 1 µM.
Setting [34] is: second compound 10 µM, first compound 3.16 µM.
Where [35] appears, read: second compound 10 µM, first compound 10 µM.
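Further: spheroids exposed to agents for seven days before readout.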
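Wherever viability, T/C is given: percent of DMSO vehicle control luminescence viability.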

On to `CC1COCCN1c1cc(C2(S(C)(=N)=O)CC2)nc(-c2ccnc3[nH]ccc23)n1` (stereo unspecified) + CC(CO)NC(=O)c1cc(-c2ccc(Cl)cc2)nn(-c2cnn(C)c2)c1=O, for which the IC50 (commonly the midpoint of a concentration-inhibition curve) was over 10000 nM under setting [1]; over 10000 nM under setting [2]; over 10000 nM under setting [3]; over 10000 nM under setting [4]; over 10000 nM under setting [5]. Besides, the viability, T/C (as a rule, the ratio of treated to control) by setting is: under setting [6], 90.6%; under setting [7], 88.8%; under setting [8], 92.3%; under setting [9], 92.9%; under setting [10], 134%; under setting [11], 68.3%. Also, the viability, T/C is, setting by setting: under setting [12], 92.2%; under setting [13], 88.2%; under setting [14], 95.2%; under setting [15], 112%; under setting [16], 136%; under setting [17], 75.4%. Further, the viability, T/C by setting is: under setting [18], 108%; under setting [19], 100%; under setting [20], 108%; under setting [21], 111%; under setting [22], 123%; under setting [23], 60.8%. The viability, T/C was 93.9% under setting [24]; 98.7% under setting [25]; 107% under setting [26]; 110% under setting [27]; 123% under setting [28]; 58.9% under setting [29]. Besides, the viability, T/C under setting [30] is 98.6%; the viability, T/C under setting [31] was 94.9%; the viability, T/C under setting [32] was 81%; the viability, T/C under setting [33] was 95.9%; the viability, T/C under setting [34] was 104%; the viability, T/C under setting [35] is 75.2%.

As to `NS(=O)(=O)OCC1CC(n2ccc3c(NC4CCc5ccccc54)ncnc32)CC1O` (stereo unspecified), the viability, T/C by setting is: (compound 0.0316 µM) 99.2% and 99.8% and 104%; (compound 0.1 µM) 113% and 118% and 105%; (compound 0.316 µM) 114% and 130% and 106%; (compound 1 µM) 91.4% and 97.8% and 66.8%; (compound 3.16 µM) 35.2% and 53.6% and 26.8%; (compound 10 µM) 9.55% and 14.4% and 8.49%. In addition, the IC50 (curve of compound) was 2340 nM and 3420 nM and 1640 nM.

Turning to `Nc1ccn(C2OC(CO)C(O)C2(F)F)c(=O)n1` (stereo unspecified) + Cc1cncc(-c2nc(NCCc3c[nH]c4ccccc34)c3ncn(C(C)C)c3n2)c1, the IC50 reads like this: under setting [1], 48.3 nM; under setting [2], 46.3 nM; under setting [3], 42.5 nM; under setting [4], 59.5 nM; under setting [5], under 31.6 nM. In addition, the viability, T/C reads like this: under setting [6], 65.8%; under setting [7], 22.5%; under setting [8], 15.1%; under setting [9], 12.1%; under setting [10], 10.7%; under setting [11], 7.08%. Moreover, the viability, T/C reads like this: under setting [12], 61.6%; under setting [13], 26.9%; under setting [14], 12.9%; under setting [15], 12.8%; under setting [16], 10.2%; under setting [17], 7.37%. In addition, the viability, T/C under setting [18] is 59.6%; the viability, T/C under setting [19] is 22.8%; the viability, T/C under setting [20] is 13.5%; the viability, T/C under setting [21] is 9.62%; the viability, T/C under setting [22] is 10.7%; the viability, T/C under setting [23] was 8.49%. Moreover, the viability, T/C was 65.2% under setting [24]; 37.5% under setting [25]; 16.2% under setting [26]; 8.68% under setting [27]; 11.6% under setting [28]; 9.18% under setting [29]. The viability, T/C is 6.33% under setting [30]; 1.93% under setting [31]; 1.21% under setting [32]; 0.96% under setting [33]; 2.26% under setting [34]; 2.09% under setting [35].

For the compound `CC(C)c1c(-c2ccccc2)nc2c(C#N)c[nH]n2c1=O`, the viability, T/C is, setting by setting: (compound 0.0316 µM) 105% and 98.6% and 111%; (compound 0.1 µM) 97.8% and 96% and 112%; (compound 0.316 µM) 111% and 97% and 96.5%; (compound 1 µM) 99.3% and 89.9% and 105%; (compound 3.16 µM) 105% and 98.1% and 98.8%; (compound 10 µM) 77.9% and 92% and 96.4%. The IC50 (curve of compound) is over 10000 nM.

`Nc1ncn(C2CC(O)C(CO)O2)c(=O)n1` (stereo unspecified) + Cc1cncc(-c2nc(NCCc3c[nH]c4ccccc34)c3ncn(C(C)C)c3n2)c1: the IC50 under setting [1] is over 1000 nM; the concentration for half-maximal inhibition (IC50) under setting [2] is over 1000 nM; the IC50 under setting [3] was over 1000 nM; the IC50 under setting [4] was over 1000 nM; the IC50 under setting [5] is under 3.16 nM. The viability, T/C (second compound 0.1 µM, first compound 0.00316 µM) was 99.1%; the viability, T/C (second compound 0.1 µM, first compound 0.01 µM) was 94.1%; the viability, T/C under setting [6] was 88.8%; the viability, T/C under setting [7] was 86.2%; the viability, T/C under setting [8] is 82%; the viability, T/C under setting [9] was 77.5%. For the same compound, the viability, T/C was 86.8% (second compound 0.316 µM, first compound 0.00316 µM); 88.5% (second compound 0.316 µM, first compound 0.01 µM); 81.9% under setting [12]; 79.8% under setting [13]; 82.5% under setting [14]; 75% under setting [15]. Also, the viability, T/C was 91.9% (second compound 1 µM, first compound 0.00316 µM); 90% (second compound 1 µM, first compound 0.01 µM); 85.5% under setting [18]; 86.4% under setting [19]; 82.4% under setting [20]; 74.6% under setting [21]. Also, the viability, T/C runs as follows: (second compound 3.16 µM, first compound 0.00316 µM) 79.9%; (second compound 3.16 µM, first compound 0.01 µM) 86.5%; under setting [24], 79.3%; under setting [25], 71.4%; under setting [26], 82%; under setting [27], 69%. Also, the viability, T/C (second compound 10 µM, first compound 0.00316 µM) was 10.8%; the viability, T/C (second compound 10 µM, first compound 0.01 µM) is 6.45%; the viability, T/C under setting [30] was 2.54%; the viability, T/C under setting [31] is 7.37%; the viability, T/C under setting [32] was 9.7%; the viability, T/C under setting [33] is 7.88%.

For the compound `O=C(c1cc(Cc2n[nH]c(=O)c3ccccc23)ccc1F)N1CCN(C(=O)C2CC2)CC1`, the viability, T/C reads like this: (compound 0.0316 µM) 99% and 105% and 111%; (compound 0.1 µM) 112% and 105% and 129%; (compound 0.316 µM) 111% and 99% and 105%; (compound 1 µM) 105% and 98.5% and 116%; (compound 3.16 µM) 114% and 103% and 106%; (compound 10 µM) 87.1% and 93.6% and 102%. The IC50 (curve of compound) was over 10000 nM.
